Assay results published in US20230025280A1, “PH RESPONSIVE COMPOSITIONS, FORMULATIONS, AND METHODS OF IMAGING A TUMOR” (ONCONANO MEDICINE, INC, priority 2019, published 2023).
Several values for one entry are separate records, joined by “and”; a condition that tells them apart may be missing. Identical values can stand only once. Entries after “also recorded” stand apart in the source; their conditions may differ.

Key:
Assay type in all cases: in vivo, human
lymph node metastases = assay: Lymph node imaging (PEARL) versus H/E staining
Text: After lymph node dissection, lymph nodes were identified by the attending pathologist and harvested if present. After harvesting, the single lymph nodes were imaged before further processing using PEARL imaging. The images were processed using ImageJ (FiJi). The fluorescent images were reviewed by 2 separate researchers blinded for histology, whether fluorescence was present. The pathologist, blinded for fluorescence images, evaluated whether the lymph node was positive for tumor invasion or isolated tumor cells based on H/E staining.

[1] = tested on: tumor positive surgical margins; assay: Fluorescence detection of tumor positive surgical margins versus final histopathology; parameters: key to Histology vs. Fluorescence Correlation: TP = true positive; TN = true negative; FP = false positive; conditions: for Histology vs. Fluorescence Correlation / Surgical Margin by Fluorescence: per patient
Text: Tumor specimens were processed for histology according to the standard pathology practice used in clinical cancer care. Diagnosis on margins, selected histological features necessary for clinical decision making were provided. Fluorescence images were collected from the tumor and lymph node specimens and study-related biopsies. Margin width and number of positive margins were noted and correlated to the location of fluorescence in the margins. From this, the correlation between Compound 1 fluorescence and histopathology were calculated.
In a total of 24 patients (HNSCC:13; BC:11), 9 patients (HNSCC:6; BC:3) had histologically confirmed tumor positive surgical margins that were undetected during SOC surgery. Fluorescence guided margin assessment was performed on a per-patient basis. Compound 1 imaging visualized all of these surgical margin patients yielding 100% sensitivity. […] There were 5 of 15 false positives (specificity of 67%), in which fluorescence detected tissue was not confirmed to be tumor by histopathological assessment. 5 of 14 (36%) patients had fluorescent tissues that were negative for tumor (PPV: 64%).
In this Phase 1 study, the intraoperative and postoperative imaging data was used for a preliminary analysis of the diagnostic performance of Compound 1. Performance parameters such as MFI, CNR, and TBR were calculated in vivo and in tissue slices to characterize the ability of Compound 1 to delineate tumor tissue from background. Sensitivity and specificity for detecting tumor tissue from the adjacent normal tissue was evaluated using tissue specimen fluorescence and presented as a ROC curve. The sensitivity, specificity, and PPV of Compound 1 fluorescence in detecting pathology confirmed tumor positive margins were obtained at the patient level.

occult lesions = assay: Detection of occult disease by Compound 1 fluorescence
Text: During surgery, intraoperative images of Compound 1 fluorescence were obtained from the primary tumors and metastatic lymph nodes as well as the surrounding tissue which include normal noncancerous tissues using NIR camera(s). This may be in vivo and/or ex vivo imaging of resected specimens. If the surgeon considered it safe, up to a maximum of 10 study related biopsies were taken from the regions with Compound 1 fluorescence that were otherwise not suspected as tumor clinically. Feasibility to image tumors with Compound 1 using multiple NIR cameras was evaluated.
Compound 1 fluorescence detected 5 additional occult lesions (1 patient with HNSCC and 4 patients with BC) otherwise missed by SOC preoperative surgery or during surgery or postoperative pathology. In 1 patient with HNSCC (ON1113) who had both a fluorescent and histopathological positive surgical margin, a satellite metastasis that was otherwise undetected by standard-of-care surgery was detected in the wound bed by Compound 1 fluorescence image-guided surgery.

[2] = Phase 1 safety assessment
Description: Phase 1a was a dose-finding study performed in 5 cohorts of 3 patients each. The dose levels evaluated were […], and 1.2 mg/kg, in this sequence. Inter-cohort dose escalation took place after the last patient in the previous cohort completed the Day 10 safety assessment. Safety, PK, and imaging feasibility were evaluated in both the Phase 1a and 1b portions of the study. Patient safety is assessed during the study and for up to 10 days post-dose.

[3] = tested on: tumor positive surgical margins; assay: Fluorescence detection of tumor positive surgical margins versus final histopathology; conditions: 1.2 mg/kg; EC; per patient
[4] = 403 lymph nodes across 4 tumor types
[5] = TOTAL of all patients, 403 lymph nodes
[6] = lymph nodes per patient, fluorescence vs H/E pathology
[7] = 24 patients (HNSCC:13; BC:11), per-patient

## PEO90-140-b-P(DBA60-150-r-ICG0-3-r-AMA0-3) [Compound 1]
Lymph node metastases; 30/(30+34)
  Overall sensitivity in lymph nodes: 0.47
Lymph node metastases; 293/(46+293)
  Overall specificity in lymph nodes: 0.86
Lymph node metastases; [4]
  Lymph nodes fluorescence negative / H/E negative: 293 of 339 and 293
  Lymph nodes fluorescence negative / H/E positive: 34
  Lymph nodes fluorescence negative, TOTAL: 327
  Lymph nodes fluorescence positive / H/E negative: 46
  Lymph nodes fluorescence positive / H/E positive: 30
  Lymph nodes fluorescence positive, TOTAL: 76
Lymph node metastases; [5]
  False Negatives n: 34
  False Positives n: 46
  True Negatives n: 293
  True Positives n: 30
Lymph node metastases; [6]
  False Negatives n: 0 (23×) and 1 (4×) and 3 and 2 and 25
  False Positives n: 0 (12×) and 3 (4×) and 1 (9×) and 4 and 2 (2×) and 6 and 11
  True Negatives n: 0 (12×) and 50 and 14 (2×) and 7 and 44 and 20 and 2 (3×) and 34 and 1 (2×) and 15 and 41 and 8 and 16 and 18 and 4
  True Positives n: 2 (2×) and 0 (22×) and 1 (4×) and 12 and 10
[1]; 0.1 mg/kg, HNSCC
  Histology vs. Fluorescence Correlation: TP (2×) and TN
  Surgical Margin by Fluorescence: Positive; also recorded: Negative
[1]; 0.3 mg/kg, BC
  Histology vs. Fluorescence Correlation: TP and TN (2×)
  Surgical Margin by Fluorescence: Positive; also recorded: Negative
[1]; 0.5 mg/kg, BC
  Histology vs. Fluorescence Correlation: TN
  Surgical Margin by Fluorescence: Negative
[1]; 0.5 mg/kg, HNSCC
  Histology vs. Fluorescence Correlation: TN and TP
  Surgical Margin by Fluorescence: Negative; also recorded: Positive
[1]; 0.8 mg/kg, BC
  Histology vs. Fluorescence Correlation: TN and TP
  Surgical Margin by Fluorescence: Negative; also recorded: Positive
[1]; 0.8 mg/kg, HNSCC
  Histology vs. Fluorescence Correlation: FP
  Surgical Margin by Fluorescence: Positive
[1]; 1.2 mg/kg, BC
  Histology vs. Fluorescence Correlation: TN (2×) and FP (2×) and TP
  Surgical Margin by Fluorescence: Negative; also recorded: Positive
[1]; 1.2 mg/kg, CRC
  Histology vs. Fluorescence Correlation: TN
  Surgical Margin by Fluorescence: Negative
[1]; 1.2 mg/kg, EC
  Histology vs. Fluorescence Correlation: TN
[1]; 1.2 mg/kg, HNSCC
  Histology vs. Fluorescence Correlation: TP (3×) and FP (2×) and TN (2×)
  Surgical Margin by Fluorescence: Positive; also recorded: Negative
[1]; 2 of 3 EC and 1 of 3 CRC patients
  Fluorescence in patients with histologically negative margin: negative
[1]; [7]
  PPV for surgical margin patients: 64%
  Sensitivity for tumor positive surgical margin patients: 100%
  Specificity for surgical margin patients: 67%
[1]; BC
  Patients with false positive fluorescence margins: 2
  Sensitivity for positive margin patients: 100%
  Specificity for positive margin patients: 75%
[1]; HNSCC
  Patients with false positive fluorescence margins: 3
  Sensitivity for positive margin patients: 100%
  Specificity for positive margin patients: 57%
[1]; HNSCC and BC
  False negatives in surgical margin detection: no false negatives
[1]; HNSCC and BC, per-patient
  False positives (fluorescent tissue not confirmed tumor by histopathology): 5 of 15
[1]; HNSCC:6, BC:3
  Histologically proven tumor positive surgical margins detected: 9 out of 9 and 9
Occult lesions; 1 patient with HNSCC and 4 patients with BC
  Additional occult lesions detected: 5
Occult lesions; missed by routine surgery, confirmed by pathology
  Other occult tumors detected by in vivo wound-bed imaging: 2
Occult lesions; pathology specimens
  Additional satellite lesions and second primaries detected ex vivo: 3
[2]; Phase 1a, 0.1 to 1.2 mg/kg
  Safety profile: comparable at all the dose levels studied and did not raise any specific safety concerns
[2]; Phase 1b, 1.2 mg/kg
  Tolerability: well tolerated
[3]
  Surgical Margin by Fluorescence: Negative
